Literature values as cited in patent US8574562B2, “Microemulsion pharmaceutical composition comprising a macrolide immunosuppressant drug” (Novaliq GmbH, priority 2009, dated 2013).

Experiments:
[1] = relative to ciclosporin
[2] = relative to ciclosporin; remark: listed apart in the source
[3] = methanol, ethanol, acetone, chloroform, ethyl acetate, diethyl ether

## C=CC[C@@H]1/C=C(\C)C[C@H](C)C[C@H](OC)[C@H]2O[C@@](O)(C(=O)C(=O)N3CCCC[C@H]3C(=O)O[C@H](/C(C)=C/[C@@H]3CC[C@@H](O)[C@H](OC)C3)[C@H](C)[C@@H](O)CC1=O)[C@H](C)C[C@@H]2OC [Tacrolimus]
[1]
  immunosuppressive activity in vivo, higher than that of ciclosporin: 10-20 times
[2]
  immunosuppressive activity in vitro, higher than that of ciclosporin: 50-100 times
[3]
  solubility in organic solvents: soluble
